Patent publication US11578074B2, “Nitrogenous heterocyclic compound, preparation method, intermediate, composition, and application” (SHANGHAI PHARMACEUTICALS HOLDING CO., LTD., priority 2017, dated 2023)

Key:
[1] = In vivo pharmacokinetic study in rats; details: male, SD, rat, plasma, oral, 3 mg/kg intravenous, 6 mg/kg intragastric
Experimental: Five male SD rats, weighing 180-220 g (provided by Shanghai Xipuerbikai Experimental Animal Co., Ltd, certificate No. 20130016005408). The rats were fasted for feed but not water for 12-16 hours before the experiment. Two rats were intravenously injected with 3 mg/kg (which was dissolved by the ratio 0.9% physiological saline:PEG 400=7:3, to give a clear solution with a concentration of 1 mg/mL and a dosage volume of 3 mL/kg) of the final product of Embodiment 45. Blood samples were collected before administration and at 2, 5, 15, 30, 60, 90, 120, 240, 360, 480, 600 and 1440 minutes after administration respectively; three rats were intragastricly administrated with 6 mg/kg (0.5% CMC-Na was added and grounded into a uniform suspension with a concentration of 0.75 mg/mL and a dosage volume of 8 mL/kg) of the final product of Embodiment 45. Blood samples were collected before administration and at 5, 15, 30, 60, 90, 120, 240, 360, 480, 600 and 1440 minutes after administration respectively.
(§1) 0.4 mL of blood was taken from fundus venous plexus of mice and rats into a heparinized centrifuge tube (10 μL heparin sodium solution/tube). […] After vortexing for 10 minutes and centrifuging at 6000 g and 4° C. for 10 minutes, the supernatant was diluted with mobile phase in a 96-well plate, and the drug concentration in plasma was determined by UPLC/MS-MS.

[2] = In vivo pharmacokinetic study in mice; details: male, ICR, mouse, plasma, oral, 3 mg/kg intravenous, 10 mg/kg intragastric
Experimental: 24 male ICR mice weighing 18-22 g (provided by Shanghai Xipuerbikai Experimental Animal Co., Ltd, certificate No.: 20130016005759). The mice were fasted for feed but not water for 12-16 hours before the experiment. 24 mice were divided into 2 groups with 12 mice in each group. The first group was intravenously administrated with 3 mg/kg (which was dissolved by the ratio 0.9% physiological saline:PEG 400=8:2, to give a clear solution with a concentration of 0.3 mg/mL and a dosage volume of 10 mL/kg) of the final product of Embodiment 45. Blood samples were collected before administration and 2, 5, 15, 30, 60, 90, 120, 240, 360, 480, 600 and 1440 minutes after administration, respectively. The second group was intragastricly administrated with 10 mg/kg (0.5% CMC-Na was added and grounded into a uniform suspension with a concentration of 0.5 mg/mL and a dosage volume of 20 mL/kg) of the final product of Embodiment 45. […]
as §1

[3] = In vivo pharmacokinetics study in cynomolgus monkeys; details: male, cynomolgus monkey, in vivo, po, 15 mg/kg
Experimental: 6 male cynomolgus monkeys (purchased from Guangxi Guidong Primate Development Experiment Co., Ltd., certificate No. SCXK (Guangxi) 2013-0057) were divided into 2 groups with 3 in each group, and all of the animals were fasted for about 12 hours before administration. One group was orally administrated with 15 mg/kg of the final product of Embodiment 22 (deionized water was added, followed by sonication for 30 minutes and stirring for 3 minutes, and a clear pale yellow dosing solution with a concentration of 3 mg/mL was prepared); one group was administrated with 15 mg/kg of Pyrotinib (deionized water was added, followed by sonication for 30 minutes and stirring for 4 minutes, and a clear yellow dosing solution with a concentration of 3 mg/mL was prepared). Blood samples were collected before administration and at 15, 30, 60, 90, 120, 150, 180, 240, 360, 480, 720 and 1440 minutes respectively after administration.
1.0 mL of blood was collected from each animal through jugular vein puncture at each time point and heparin sodium was used for anticoagulation. The blood samples were collected and placed in labeled centrifuge tubes, and plasma was centrifuged (centrifugation conditions: 3500 rpm, 10 minutes, 2-8° C.). To 50 μL of plasma sample was added 300 μL of acetonitrile containing internal standard (Propranolol, 25 ng/mL) to precipitate the protain. After vortexing for 10 minutes and centrifuging at 6000 g for 20 minutes, 100 μL of supernatant was taken and injected into a 96-well plate. The drug concentration in plasma was determined by UPLC/MS-MS.

[4] = test system: HER2 overexpressing human gastric cancer NCI-N87 nude mice xenograft; test: HER2 overexpressing human gastric cancer NCI-N87 nude mice xenograft model; type: in vivo; details: continuous oral administration for 21 days
From the text: We have established nude mice xenograft model for HER2 overexpression.

bioavailability [1] [%]	bioavailability [2] [%]	SMILES	AUC [3] [ng·h/mL]	oral absorption peak concentration [3] [ng/mL]	tolerability ([4]; 5 mg/kg, 10 mg/kg and 20 mg/kg)	tumor volume inhibition rate (GI %) ([4]; 5 mg/kg) [%]	tumor volume inhibition rate (GI %) ([4]; 10 mg/kg) [%]	tumor volume inhibition rate (GI %) ([4]; 20 mg/kg) [%]
71.3	87.7	CCOc1cc2ncnc(Nc3ccc(Oc4ccn5ncnc5c4)c(C)c3)c2cc1NC(=O)/C(F)=C/[C@H]1CCCN1C [Final product of Embodiment 45]						
		CCOc1cc2ncnc(Nc3ccc(Oc4ccn5ncnc5c4)c(C)c3)c2cc1NC(=O)/C=C/[C@H]1CCCN1C [Final product of Embodiment 22, (R,E)-N-(4-((4-([1,2,4]triazolo[1,5-a]pyridin-7-yloxy)-3-methylphenyl)amino)-7-ethoxyquinazolin-6-yl)-3-(1-methylpyrrolidin-2-yl)acrylamide]	5580	506.5	tolerant	51.5	130.1	146.2
